The source of these data is ChEMBL document CHEMBL1129829, “Synthesis and biological activity of P2P4 azapeptidomimetic P1-argininal and P1-ketoargininamide derivatives: a novel class of serine protease inhibitors” (Bioorg Med Chem Lett, 1997).

The target in assay [1] is T1, Plasminogen (Homo sapiens, UniProt P00747).
Assay [2] addresses T2, Coagulation factor X (Homo sapiens, UniProt P00742).
Assay [3] concerns the target T3, Serine protease 1 (Bos taurus, UniProt P00760).
T3 sequence (P00760 whole entry): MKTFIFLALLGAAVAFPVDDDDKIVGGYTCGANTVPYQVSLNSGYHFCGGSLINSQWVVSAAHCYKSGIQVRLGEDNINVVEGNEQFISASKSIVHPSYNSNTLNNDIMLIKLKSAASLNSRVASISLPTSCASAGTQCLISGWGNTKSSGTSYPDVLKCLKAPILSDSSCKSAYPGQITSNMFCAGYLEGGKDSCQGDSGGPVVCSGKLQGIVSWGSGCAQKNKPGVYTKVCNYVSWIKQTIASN
The assay is described as follows: Compound was evaluated for its 50% inhibitory concentration against cow protease enzyme trypsin.

In assay [4] the target is T4, Coagulation factor VII (Homo sapiens, UniProt P08709).
T4 sequence (P08709 whole entry): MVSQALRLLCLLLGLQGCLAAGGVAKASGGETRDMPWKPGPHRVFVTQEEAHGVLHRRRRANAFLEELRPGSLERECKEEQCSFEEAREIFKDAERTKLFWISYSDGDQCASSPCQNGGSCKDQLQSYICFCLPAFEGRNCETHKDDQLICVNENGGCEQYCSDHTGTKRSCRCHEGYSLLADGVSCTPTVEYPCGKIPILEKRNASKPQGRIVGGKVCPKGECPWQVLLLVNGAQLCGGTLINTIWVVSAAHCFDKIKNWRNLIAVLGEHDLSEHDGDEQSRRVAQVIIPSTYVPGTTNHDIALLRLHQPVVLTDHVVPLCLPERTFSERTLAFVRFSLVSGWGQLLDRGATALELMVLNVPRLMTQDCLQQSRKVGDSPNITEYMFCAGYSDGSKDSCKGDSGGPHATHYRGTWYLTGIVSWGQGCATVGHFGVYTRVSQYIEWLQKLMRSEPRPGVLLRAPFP
The assay is described as follows: Compound was evaluated for its 50 percent inhibitory concentration against human Coagulation factor VII.

Assay [5] deals with T5, Prothrombin (Homo sapiens, UniProt P00734). Nature of the assay: Compound was evaluated for its 50 percent inhibitory concentration against human thrombin factor (FIIa).
Assay [6] concerns the target Serine protease 1 (Homo sapiens, UniProt P07477). Nature of the assay: Compound was evaluated for its 50% inhibitory concentration against human protease enzyme trypsin.
The target of assay [7] is T4, Coagulation factor VII. The assay is described as follows: Compound was evaluated for its 50 percent inhibitory concentration against human Coagulation factor VII: Inactive.
Assay [8] addresses T4, Coagulation factor VII. Nature of the assay: Compound was evaluated for its 50 percent inhibitory concentration against human Coagulation factor VII; inactive.
For assay [9], the target named is T1, Plasminogen. Nature of the assay: Compound was evaluated for its 50% inhibitory concentration against human protease enzyme plasmin; Inactive.
For assay [10], the target named is T5, Prothrombin.
In assay [11] the target is T1, Plasminogen. Nature of the assay: Compound was evaluated for its 50% inhibitory concentration against human protease enzyme plasmin.
The target of assay [12] is T2, Coagulation factor X. Nature of the assay: Compound was evaluated for its 50% inhibitory concentration against Coagulation factor X.

T1 sequence (P00747 97-580 limits assumed): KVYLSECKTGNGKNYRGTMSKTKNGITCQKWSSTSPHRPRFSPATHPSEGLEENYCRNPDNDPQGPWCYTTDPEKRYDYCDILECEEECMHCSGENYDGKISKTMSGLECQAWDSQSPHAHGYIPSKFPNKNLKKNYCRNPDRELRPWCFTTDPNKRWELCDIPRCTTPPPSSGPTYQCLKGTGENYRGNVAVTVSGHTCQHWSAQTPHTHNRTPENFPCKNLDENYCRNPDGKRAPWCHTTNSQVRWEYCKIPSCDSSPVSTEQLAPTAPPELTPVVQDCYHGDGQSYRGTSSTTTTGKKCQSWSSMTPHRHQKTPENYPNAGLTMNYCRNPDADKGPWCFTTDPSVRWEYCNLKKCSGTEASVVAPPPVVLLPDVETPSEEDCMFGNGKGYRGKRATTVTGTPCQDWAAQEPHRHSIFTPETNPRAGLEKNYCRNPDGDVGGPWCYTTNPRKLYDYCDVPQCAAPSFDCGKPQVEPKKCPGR
T1 sequence (P00747 581-810 limits assumed): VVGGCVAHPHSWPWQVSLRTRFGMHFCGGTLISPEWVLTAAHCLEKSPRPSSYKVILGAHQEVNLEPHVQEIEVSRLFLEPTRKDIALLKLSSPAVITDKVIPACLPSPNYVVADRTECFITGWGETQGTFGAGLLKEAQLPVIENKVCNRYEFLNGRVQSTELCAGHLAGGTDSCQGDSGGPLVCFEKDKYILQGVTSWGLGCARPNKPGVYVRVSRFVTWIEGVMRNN
Sequence of Serine protease 1 (Homo sapiens, UniProt P07477) (P07477 whole entry): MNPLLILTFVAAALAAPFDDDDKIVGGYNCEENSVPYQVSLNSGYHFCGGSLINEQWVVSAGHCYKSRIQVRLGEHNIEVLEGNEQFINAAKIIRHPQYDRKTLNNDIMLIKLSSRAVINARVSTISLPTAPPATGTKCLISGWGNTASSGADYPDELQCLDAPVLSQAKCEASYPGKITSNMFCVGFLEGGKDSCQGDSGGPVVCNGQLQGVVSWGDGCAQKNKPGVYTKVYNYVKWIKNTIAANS
T2 sequence (P00742 41-179 limits assumed): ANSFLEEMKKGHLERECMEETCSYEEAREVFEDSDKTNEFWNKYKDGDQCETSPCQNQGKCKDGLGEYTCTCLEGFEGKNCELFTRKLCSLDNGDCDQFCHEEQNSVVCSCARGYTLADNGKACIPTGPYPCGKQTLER
T2 sequence (P00742 235-488 limits assumed): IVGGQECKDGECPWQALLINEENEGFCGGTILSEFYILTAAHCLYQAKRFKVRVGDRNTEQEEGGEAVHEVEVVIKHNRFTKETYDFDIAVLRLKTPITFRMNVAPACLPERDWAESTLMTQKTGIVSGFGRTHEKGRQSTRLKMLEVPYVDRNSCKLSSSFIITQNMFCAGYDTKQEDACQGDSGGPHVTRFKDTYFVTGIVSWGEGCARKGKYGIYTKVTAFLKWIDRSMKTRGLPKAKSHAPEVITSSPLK

As a reminder, the IC50 is the concentration needed to halve the response being measured. A high value points to weaker potency. On to `CC(C)(C)OC(=O)NN(Cc1ccccc1)C(=O)[C@@H]1CCCC[C@H]1C(=O)N[C@H](C=O)CCCN=C(N)N`, for which the IC50 entry at Plasminogen [1] is “Not Active”; against Coagulation factor X [2] it was “Not Active”; on Serine protease 1 [3] it was greater than 2500 nM; on Coagulation factor VII [4], greater than 25 µM; on Prothrombin [5] it was greater than 2.5 µM.

`CCOC(=O)CN(NC(=O)OC(C)(C)C)C(=O)[C@@H]1CCCC[C@H]1C(=O)N[C@H](C=O)CCCN=C(N)N`: the IC50 result on Plasminogen [1] is “Not Active”; against Coagulation factor X [2], “Not Active”; against Serine protease 1 [3], 250 nM; against Coagulation factor VII [4], 22 µM; against Prothrombin [5] it was greater than 2.5 µM.

As to `CC(=O)NN(CCCc1ccccc1)C(=O)[C@@H]1CCCC[C@H]1C(=O)N[C@H](C=O)CCCN=C(N)N`, the IC50 is 5.7 µM against Serine protease 1 [6]; “Not Active” at Plasminogen [1]; “Not Active” against Coagulation factor X [2]; greater than 25 µM on Coagulation factor VII [4]; 12.8 µM at Prothrombin [5].

For the compound `CC(C)(C)OC(=O)NN(Cc1ccccc1)C(=O)[C@@H]1CCCC[C@H]1C(=O)N[C@@H](CCCN=C(N)N)C(=O)C(=O)NCCc1ccccc1`, the IC50 against Serine protease 1 [6] is 0.25 µM; against Plasminogen [1] it was “Not Active”; against Coagulation factor VII [7], “Not Active”; on Coagulation factor X [2], “Not Active”; on Prothrombin [5] it was 0.88 µM.

Consider `CCCC(CCC)C(=O)NN(CC(=O)OCC)C(=O)[C@@H]1CCCC[C@H]1C(=O)N[C@@H](CCCN=C(N)N)C(=O)C(=O)NCCc1ccccc1`, for which the IC50 on Serine protease 1 [6] was 22.2 µM; against Coagulation factor X [2], “Not Active”; against Prothrombin [5], 13.2 µM; at Coagulation factor VII [8] it was “Not Active”; on Plasminogen [9], “Not Active”.

In the case of `CC(=O)NN(Cc1ccccc1)C(=O)[C@@H]1CCCC[C@H]1C(=O)N[C@H](C=O)CCCN=C(N)N`, the IC50 entry is “Not Active” against Plasminogen [1]; “Not Active” against Coagulation factor X [2]; greater than 2500 nM against Serine protease 1 [3]; greater than 25 µM against Coagulation factor VII [4]; “Not Active” at Prothrombin [10].

As for `CCOC(=O)CN(NC(C)=O)C(=O)[C@@H]1CCCC[C@H]1C(=O)N[C@H](C=O)CCCN=C(N)N`, the IC50 entry on Plasminogen [1] was “Not Active”; at Coagulation factor X [2] it was “Not Active”; at Serine protease 1 [3], 590 nM; against Coagulation factor VII [4], greater than 25 µM; at Prothrombin [5] it was 22.1 µM.

On to `COC(=O)CN(NC(=O)OC(C)(C)C)C(=O)[C@@H]1CCCC[C@H]1C(=O)N[C@@H](CCCN=C(N)N)C(=O)C(=O)NCCc1ccccc1`, for which the IC50 entry at Plasminogen [1] is “Not Active”; against Coagulation factor X [2], “Not Active”; against Serine protease 1 [3], 1310 nM; on Coagulation factor VII [4], 18 µM; against Prothrombin [10], “Not Active”.

As for `CC(=O)NN(Cc1ccccc1)C(=O)[C@@H]1CCCC[C@H]1C(=O)N[C@@H](CCCN=C(N)N)C(=O)C(=O)NCCc1ccccc1`, the IC50 against Plasminogen [11] was greater than 2500 nM; on Coagulation factor X [2], “Not Active”; against Serine protease 1 [3], 108 nM; against Coagulation factor VII [4], 8.5 µM; against Prothrombin [5], 3.2 µM.

As to `CC(C)(C)OC(=O)N[C@@H](CC(=O)O)C(=O)N1CCCC1C(=O)N[C@@H](CCCN=C(N)N)C(=O)C(=O)NCCc1ccccc1` (some centres undefined), the IC50 at Plasminogen [11] was determined as 2710 nM; on Serine protease 1 [3], 0.76 nM; against Coagulation factor VII [4] it was 0.706 µM; against Prothrombin [5], 0.0023 µM; against Coagulation factor X [12], 698 nM.

On to `CCOC(=O)CN(NC(=O)OC(C)(C)C)C(=O)[C@@H]1CCCC[C@H]1C(=O)N[C@@H](CCCN=C(N)N)C(=O)C(=O)NCCc1ccccc1`, for which the IC50 result on Plasminogen [1] is “Not Active”; against Coagulation factor X [2] it was “Not Active”; on Serine protease 1 [3], 250 nM; on Coagulation factor VII [4], 25 µM; against Prothrombin [5], greater than 2.5 µM.

`CC(=O)N[C@H](Cc1ccccc1)C(=O)N1CCC[C@H]1C(=O)N[C@H]1CCCN(C(=N)N)C1O` (some centres undefined): the IC50 against Plasminogen [11] was greater than 2500 nM; against Serine protease 1 [3], 156 nM; against Coagulation factor VII [4], 4.3 µM; on Coagulation factor X [12], greater than 2500 nM.
